Source: patent US10450549B2, “Aryloxyphenoxypropionate tolerance in turfrgass species and use of AAD1 as a selectable marker” (Dow AgroSciences, LLC, priority 2004, dated 2019)

Assays:
[1] = test system: Arabidopsis thaliana var. Columbia; experiment: Arabidopsis plate test bioassay for herbicide degradation; assay type: in vivo; conditions: Arabidopsis thaliana, 168 h, read-out: GR50, Chemical alone
[2] = test system: T4 Arabidopsis homozygous for AAD1 (v3) (line AAD1.01.315.076); experiment: Foliar-applied auxinic herbicides on homozygous T4 AAD1 (v3) Arabidopsis, % injury 14 DAT; assay type: in vivo, Arabidopsis thaliana; conditions: foliar, 50-3200 g ae/ha
Method: The ability of AAD1 (v3) to provide resistance to other aryloxyphenoxyalkanoate auxin herbicides in transgenic Arabidopsis was determined by foliar application of various substrates described in Example 6.8. T4 generation Arabidopsis seed, homozygous for AAD1 (v3) (line AAD1.01.315.076) was stratified, and sown into selection trays much like that of Arabidopsis (Example 6.4). A transformed-control line containing PAT and the insect resistance gene Cry1F was planted in a similar manner. Seedlings were transferred to individual 3-inch pots in the greenhouse. All plants were sprayed with the use of a track sprayer set at 187 L/ha. […] All applications were formulated in 200 mM Hepes buffer (pH 7.5). Each treatment was replicated 3-4 times. Plants were evaluated at 3 and 14 days after treatment and are averaged over two experiments.

[3] = test system: PAAD1.315.064 ARBTH; experiment: In vitro plate test of herbicide cross resistance: homozygous T4 AAD1 (v3) Arabidopsis; assay type: in vivo, Arabidopsis thaliana; conditions: for root ratio / shoot ratio: resistant to sensitive biotype, >2 signifies resistance; for PAAD1.315.064 ARBTH root 150 / PAAD1.315.064 T3 ARBTH shoot 150: 7 days
Method: (§1) The ability of AAD1 (v3) to provide resistance to other aryloxyphenoxyalkanoate herbicides in transgenic Arabidopsis was determined using a modified in vitro plate assay. Seeds from wild-type Arabidopsis thaliana as well as Arabidopsis thaliana containing the plant optimized AAD1 (v3) gene (T4 homozygous plants id=PAAD1.315.064) were sterilized by agitating for 10 min in a 50% bleach solution. These seeds were then rinsed four times with sterile water to remove the bleach.
(§2) Dose response assays utilized a nutrient media (see below) supplemented with various rates of test compounds. The test compounds were added to the heated media (55° C.) as concentrated solutions in DMSO. Control wells had the appropriate amount of DMSO without any additional compound. The final concentration of DMSO never exceeded 1% (v/v). After thorough mixing, a 6 mL aliquot of the warm media containing the appropriate concentration of compound was added to each well of a 6-well, flat bottom, polystyrene tissue culture tray (Falcon 353046, Becton Dickson and Company, Franklin Lakes, N.J.). After the media solidified, approximately 20 to 30 Arabidopsis seeds were applied on top of the solidified media and the remaining 2 mL of media was poured over the seeds. The plates were lightly agitated to disperse the seeds, covered and allowed to cool until the media had completely solidified. The plates were incubated for 7 days at 25° C. under continual fluorescent lighting (75 μE m^−2 s^−1). Nutrient Media Composition was as described in Example 2.2 and in Somerville and Orgen (1982).
(§3) Assessment of Growth Reduction. The apical portion of the Arabidopsis plants grown in the treated media was assessed visually relative to the apical portion of the plants grown in the media containing only DMSO. Values were recorded as % growth reduction. Assessments of root growth inhibition of the Arabidopsis plants grown in the treated media were achieved by carefully extracting the plants from the media and measuring the length of the root. These root lengths were then compared to the root length of the control plants to determine a % growth reduction. A minimum of five plants were assessed for each treatment. The values recorded are an average of all the plants assessed. The calculated concentration to reach 50% inhibition effect (I50) were determined for both root and shoots of wildtype and AAD1-transformed Arabidopsis. The ratios of resistant to sensitive biotypes are included in Table 19. A ratio>2 for both root and shoot measurements generally signifies significant resistance. The higher the ratio, the greater the level of resistance. […] The broad phenoxy auxin resistance is the first reported in planta.

[4] = test system: wt ARBTH; experiment: In vitro plate test of herbicide cross resistance: wild-type Arabidopsis; assay type: in vivo, Arabidopsis thaliana; conditions: 7 days
Method: as §1, §2, §3

[5] = test system: AAD1 (v3) event lines; experiment: Field tolerance of pDAB3404 T1 corn to quizalofop and 2,4-D: AAD1 (v3) events; assay type: in vivo; conditions: 1120 g ae/ha
Source text: (§4) Two field trials were established at field stations in Hawaii and Indiana. […] The hybrid Hi-II×5XH571 is of the same parentage as the AAD1 (v3) event lines. The hybrid Croplan 585SR is a sethoxydim resistant line.
(§5) The experimental design was a split-plot with four replications. The main plot was herbicide treatment and the sub-plot was AAD1 (v3) event or comparison hybrid. Plots were one row by 3.7 meters with approximately twenty-five seeds planted in each row. For AAD1 events, seeds from a different lineage within the event were planted in each replicate.
(§6) Glufosinate at 560 g ai/ha was applied to AAD1 (v3) plots at the V2 stage to eliminate non-transformed plants. […] Treatments were applied using backpack broadcast boom equipment delivering 187 L/ha carrier volume at 130-200 kpa pressure.
(§7) Quizalofop treated plots were visually assessed for crop injury at one and three weeks after application (WAA) using a 0-100% scale, where 0 equals no injury and 100 equals complete death.

[6] = test system: Non-transformed hybrids; experiment: Field tolerance to quizalofop and 2,4-D: non-transformed hybrids; assay type: in vivo, corn; conditions: 1120 g ae/ha
Source text: as §4, §5, §6, §7

[7] = molecular target: T1, AAD1 (v1) (Sphingobium herbicidovorans, UniProt Q8KSC8); experiment: Colorimetric phenol detection assay of AAD1 (v1) activity (purified enzyme or E. coli extract); assay type: biochemical
T1 construct: made in house; host or cells: E. coli BL-21 Star (DE3), plasmid pDAB3203
T1 sequence (Q8KSC8 whole entry): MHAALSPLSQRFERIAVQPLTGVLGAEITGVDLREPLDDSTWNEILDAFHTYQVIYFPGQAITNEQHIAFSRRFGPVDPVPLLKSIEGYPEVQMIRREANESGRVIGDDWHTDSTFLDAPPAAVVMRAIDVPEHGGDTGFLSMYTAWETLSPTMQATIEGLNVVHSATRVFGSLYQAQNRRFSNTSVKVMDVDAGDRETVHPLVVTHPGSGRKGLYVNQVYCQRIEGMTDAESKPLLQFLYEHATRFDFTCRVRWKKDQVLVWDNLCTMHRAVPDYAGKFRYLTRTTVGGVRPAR

Oc1ccc(Cl)cc1Cl [DCP, 2,4-dichlorophenol]
IC50 [1]: > 1000 nM
effect of the metabolite on wildtype or transgenic Arabidopsis [2]: no effect

Nc1c(Cl)c(Cl)nc(C(=O)O)c1Cl [Picloram]
root ratio [3]: 0.5
shoot ratio [3]: 0.5
resistance afforded by AAD1 (v3) in plate test ([3]; root and shoot assessment): did not effectively protect
PAAD1.315.064 ARBTH root 150 [3]: 0.15 ppm
PAAD1.315.064 T3 ARBTH shoot 150 [3]: 0.5 ppm
wt ARBTH root 150 [4]: 0.3 ppm
wt ARBTH shoot 150 [4]: 1 ppm

CNC.O=C(O)COc1ccc(Cl)cc1Cl [2,4-D amine]
%Leaning 2 DAA (0-100 scale) ([5]; HI, 3404.001): 5%
Braceroot Deformation 3-4 WAA (0-10 scale) ([5]; HI, 3404.001): 2
%Leaning 2 DAA (0-100 scale) ([5]; HI, 3404.006): 0%
Braceroot Deformation 3-4 WAA (0-10 scale) ([5]; HI, 3404.006): 0
%Leaning 2 DAA (0-100 scale) ([5]; HI, 3404.013): 0%
Braceroot Deformation 3-4 WAA (0-10 scale) ([5]; HI, 3404.013): 0
%Leaning 2 DAA (0-100 scale) ([5]; HI, 3404.017): 0%
Braceroot Deformation 3-4 WAA (0-10 scale) ([5]; HI, 3404.017): 0
%Leaning 2 DAA (0-100 scale) ([5]; HI, 3404.020): 0%
Braceroot Deformation 3-4 WAA (0-10 scale) ([5]; HI, 3404.020): 0
%Leaning 2 DAA (0-100 scale) ([5]; HI, 3404.022): 0%
Braceroot Deformation 3-4 WAA (0-10 scale) ([5]; HI, 3404.022): 0
%Leaning 2 DAA (0-100 scale) ([5]; HI, 3404.025): 0%
Braceroot Deformation 3-4 WAA (0-10 scale) ([5]; HI, 3404.025): 0
%Leaning 2 DAA (0-100 scale) ([5]; HI, 3404.027): 0%
Braceroot Deformation 3-4 WAA (0-10 scale) ([5]; HI, 3404.027): 0
%Leaning 2 DAA (0-100 scale) ([5]; HI, 3404.031): 0%
Braceroot Deformation 3-4 WAA (0-10 scale) ([5]; HI, 3404.031): 0
%Leaning 2 DAA (0-100 scale) ([5]; HI, 3404.033): 0%
Braceroot Deformation 3-4 WAA (0-10 scale) ([5]; HI, 3404.033): 0
%Leaning 2 DAA (0-100 scale) ([5]; HI, 3404.036): 0%
Braceroot Deformation 3-4 WAA (0-10 scale) ([5]; HI, 3404.036): 0
%Leaning 2 DAA (0-100 scale) ([5]; HI, 3404.044): 0%
Braceroot Deformation 3-4 WAA (0-10 scale) ([5]; HI, 3404.044): 1
%Leaning 2 DAA (0-100 scale) ([5]; HI, 3404.050): 1%
Braceroot Deformation 3-4 WAA (0-10 scale) ([5]; HI, 3404.050): 1
%Leaning 2 DAA (0-100 scale) ([5]; HI, 3404.053): 0%
Braceroot Deformation 3-4 WAA (0-10 scale) ([5]; HI, 3404.053): 0
%Leaning 2 DAA (0-100 scale) ([5]; HI, 3404.074): 0%
Braceroot Deformation 3-4 WAA (0-10 scale) ([5]; HI, 3404.074): 0
%Leaning 2 DAA (0-100 scale) ([5]; HI, 3404.082): 0%
Braceroot Deformation 3-4 WAA (0-10 scale) ([5]; HI, 3404.082): 1
%Leaning 2 DAA (0-100 scale) ([5]; IN, 3404.001): 0%
Braceroot Deformation 3-4 WAA (0-10 scale) ([5]; IN, 3404.001): 1
%Leaning 2 DAA (0-100 scale) ([5]; IN, 3404.006): 0%
Braceroot Deformation 3-4 WAA (0-10 scale) ([5]; IN, 3404.006): 0
%Leaning 2 DAA (0-100 scale) ([5]; IN, 3404.013): 0%
Braceroot Deformation 3-4 WAA (0-10 scale) ([5]; IN, 3404.013): 0
%Leaning 2 DAA (0-100 scale) ([5]; IN, 3404.017): 1%
Braceroot Deformation 3-4 WAA (0-10 scale) ([5]; IN, 3404.017): 0
%Leaning 2 DAA (0-100 scale) ([5]; IN, 3404.020): 0%
Braceroot Deformation 3-4 WAA (0-10 scale) ([5]; IN, 3404.020): 0
%Leaning 2 DAA (0-100 scale) ([5]; IN, 3404.022): 1%
Braceroot Deformation 3-4 WAA (0-10 scale) ([5]; IN, 3404.022): 0
%Leaning 2 DAA (0-100 scale) ([5]; IN, 3404.025): 0%
Braceroot Deformation 3-4 WAA (0-10 scale) ([5]; IN, 3404.025): 0
%Leaning 2 DAA (0-100 scale) ([5]; IN, 3404.027): 3%
Braceroot Deformation 3-4 WAA (0-10 scale) ([5]; IN, 3404.027): 0
%Leaning 2 DAA (0-100 scale) ([5]; IN, 3404.031): 1%
Braceroot Deformation 3-4 WAA (0-10 scale) ([5]; IN, 3404.031): 0
%Leaning 2 DAA (0-100 scale) ([5]; IN, 3404.033): 0%
Braceroot Deformation 3-4 WAA (0-10 scale) ([5]; IN, 3404.033): 0
%Leaning 2 DAA (0-100 scale) ([5]; IN, 3404.036): 0%
Braceroot Deformation 3-4 WAA (0-10 scale) ([5]; IN, 3404.036): 0
%Leaning 2 DAA (0-100 scale) ([5]; IN, 3404.044): 1%
Braceroot Deformation 3-4 WAA (0-10 scale) ([5]; IN, 3404.044): 0
%Leaning 2 DAA (0-100 scale) ([5]; IN, 3404.050): 0%
Braceroot Deformation 3-4 WAA (0-10 scale) ([5]; IN, 3404.050): 0
%Leaning 2 DAA (0-100 scale) ([5]; IN, 3404.053): 1%
Braceroot Deformation 3-4 WAA (0-10 scale) ([5]; IN, 3404.053): 0
%Leaning 2 DAA (0-100 scale) ([5]; IN, 3404.074): 0%
Braceroot Deformation 3-4 WAA (0-10 scale) ([5]; IN, 3404.074): 0
%Leaning 2 DAA (0-100 scale) ([5]; IN, 3404.082): 0%
Braceroot Deformation 3-4 WAA (0-10 scale) ([5]; IN, 3404.082): 0
%Leaning 2 DAA (0-100 scale) ([6]; HI, CROPLAN 585SR): 33%
Braceroot Deformation 3-4 WAA (0-10 scale) ([6]; HI, CROPLAN 585SR): 9
%Leaning 2 DAA (0-100 scale) ([6]; HI, DK493): 23%
Braceroot Deformation 3-4 WAA (0-10 scale) ([6]; HI, DK493): 9
%Leaning 2 DAA (0-100 scale) ([6]; HI, HI-II X 5XH571): 34%
Braceroot Deformation 3-4 WAA (0-10 scale) ([6]; HI, HI-II X 5XH571): 9
%Leaning 2 DAA (0-100 scale) ([6]; IN, CROPLAN 585SR): 11%
Braceroot Deformation 3-4 WAA (0-10 scale) ([6]; IN, CROPLAN 585SR): 9
%Leaning 2 DAA (0-100 scale) ([6]; IN, DK493): 20%
Braceroot Deformation 3-4 WAA (0-10 scale) ([6]; IN, DK493): 8
%Leaning 2 DAA (0-100 scale) ([6]; IN, HI-II X 5XH571): 13%
Braceroot Deformation 3-4 WAA (0-10 scale) ([6]; IN, HI-II X 5XH571): 7

Cc1cc(Cl)ccc1OCC(=O)O [MCPA]
root ratio [3]: 3
shoot ratio [3]: 5
PAAD1.315.064 ARBTH root 150 [3]: 0.03 ppm
PAAD1.315.064 T3 ARBTH shoot 150 [3]: 1 ppm
wt ARBTH root 150 [4]: 0.01 ppm
wt ARBTH shoot 150 [4]: 0.2 ppm
rate of product formation relative to 2,4-D ([7]; 1 mM, 27 μg crude recombinant AAD1 (v1) per assay): 55%
A510 ([7]; Table 8, 1 mM, 27 μg crude recombinant AAD1 (v1) extract from E. coli): 0.097
% 2,4-D ([7]; Table 8, relative to 2,4-D, crude AAD1 (v1) extract): 55%
